# ± gives the standard deviation of the averaged measurements.
# Assays:
# ERLOTINIB = compound: C#Cc1cccc(Nc2ncnc3cc(OCCOC)c(OCCOC)cc23)c1 [ERLOTINIB]; test: surviving fraction relative to DMSO-only wells; higher = less growth inhibition; details: exposure time: 5 days
# Summary of the method: (§1)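 Inhibitors were tested at 0.5, 1, 5, 10, 50, 100, 500 and 1000 nM, applied continuously for five days beginning 24 hours after log-phase tumour cells were seeded at 250–500 per well in 384-well plates. CellTiter-Glo luminescence served as the viability measure, expressed as surviving fraction against the median of DMSO-only wells. Each line, screened three times, was kept only with replicate Pearson r >0.7 and median Z' >0.3.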
# EVEROLIMUS = compound: CO[C@H]1C[C@@H]2CC[C@@H](C)[C@@](O)(O2)C(=O)C(=O)N2CCCC[C@H]2C(=O)O[C@H]([C@H](C)C[C@@H]2CC[C@@H](OCCO)[C@H](OC)C2)CC(=O)[C@H](C)/C=C(\C)[C@@H](O)[C@@H](OC)C(=O)[C@H](C)C[C@H](C)/C=C/C=C/C=C/1C [EVEROLIMUS]; test: as above; details: exposure time: 5 days
# Summary of the method: as §1
Test System,surviving fraction (ERLOTINIB; 10 nM),surviving fraction (ERLOTINIB; 50 nM),surviving fraction (ERLOTINIB; 100 nM),surviving fraction (ERLOTINIB; 500 nM),surviving fraction (ERLOTINIB; 1000 nM),surviving fraction (EVEROLIMUS; 0.5 nM),surviving fraction (EVEROLIMUS; 1 nM),surviving fraction (EVEROLIMUS; 5 nM),surviving fraction (EVEROLIMUS; 10 nM),surviving fraction (EVEROLIMUS; 50 nM),surviving fraction (EVEROLIMUS; 100 nM),surviving fraction (EVEROLIMUS; 500 nM),surviving fraction (EVEROLIMUS; 1000 nM),surviving fraction (ERLOTINIB; 5 nM)
HUO3N1 BONE,1.117 ± 0.0084,1.13 ± 0.025,1.1 ± 0.018,1.02 ± 0.025,1.02 ± 0.038,0.751 ± 0.021,0.688 ± 0.011,0.655 ± 0.013,0.632 ± 0.016,0.624 ± 0.043,0.617 ± 0.042,0.581 ± 0.031,0.607 ± 0.023,–
CAL72 BONE,–,–,1.1 ± 0.083,1.06 ± 0.084,1.07 ± 0.058,0.967 ± 0.17,0.87 ± 0.16,0.707 ± 0.12,0.671 ± 0.1,0.61 ± 0.056,0.641 ± 0.057,0.576 ± 0.028,0.608 ± 0.026,1.05 ± 0.1
LNCAP PROSTATE,0.892 ± 0.053,0.947 ± 0.1,1.02 ± 0.054,–,0.967 ± 0.028,0.679 ± 0.048,0.544 ± 0.012,0.409 ± 0.033,0.404 ± 0.043,0.285 ± 0.032,0.288 ± 0.0055,0.219 ± 0.0032,0.222 ± 0.0092,0.956 ± 0.032
G292 BONE,1.06 ± 0.018,1.05 ± 0.038,1.07 ± 0.033,0.979 ± 0.019,1.07 ± 0.092,0.803 ± 0.0075,0.721 ± 0.038,0.518 ± 0.015,0.476 ± 0.024,0.433 ± 0.0098,0.436 ± 0.014,0.408 ± 0.015,0.405 ± 0.01,1.03 ± 0.051
SCC003 HEADNECK,1.06 ± 0.11,0.997 ± 0.091,1.04 ± 0.051,0.702 ± 0.024,0.552 ± 0.038,1.07 ± 0.043,1 ± 0.04,1.04 ± 0.035,0.961 ± 0.036,0.953 ± 0.037,0.94 ± 0.094,0.923 ± 0.066,0.92 ± 0.061,1.13 ± 0.045
C33A CERVIX,1.14 ± 0.019,1.06 ± 0.077,1.08 ± 0.029,0.819 ± 0.052,0.655 ± 0.031,0.757 ± 0.058,0.649 ± 0.06,0.469 ± 0.017,0.432 ± 0.0057,0.355 ± 0.027,0.369 ± 0.028,0.303 ± 0.051,0.277 ± 0.015,1.06 ± 0.03

# — the supplement of paper PMC6045584
